Key:
[1] = test system: inteleukine-2 (IL-2) release in Jurkat cells; conditions: 10 μM compound; cited from earlier work
[2] = test system: transient global ischemia; conditions: gerbils; i.p. doses ≥ 60 mg/kg; cited from earlier work
[3] = target: T1, p38 (Homo sapiens, UniProt Q16539); test: biochemical
[4] = test system: c-jun phosphorylation in INS-1 β-pancreatic cells; format: cell-based, rat; conditions: for decrease in potency (shift) for c-jun phosphorylation cell-based assay compared to JNK1 biochemical IC50: cell-based versus JNK1 biochemical
[5] = Microsomal stability, mouse; format: in vitro ADME; conditions: 2 mg/mL mouse liver microsomes, 1 μM compound
[6] = Microsomal stability, rat; format: in vitro ADME; conditions: 2 mg/mL rat liver microsomes, 1 μM compound
[7] = Microsomal stability, human; format: in vitro ADME; conditions: 2 mg/mL human liver microsomes, 1 μM compound
[8] = target: JNK3 (Homo sapiens, UniProt P53779)
Chain of JNK3 (P53779 1-422 isoform P53779-2): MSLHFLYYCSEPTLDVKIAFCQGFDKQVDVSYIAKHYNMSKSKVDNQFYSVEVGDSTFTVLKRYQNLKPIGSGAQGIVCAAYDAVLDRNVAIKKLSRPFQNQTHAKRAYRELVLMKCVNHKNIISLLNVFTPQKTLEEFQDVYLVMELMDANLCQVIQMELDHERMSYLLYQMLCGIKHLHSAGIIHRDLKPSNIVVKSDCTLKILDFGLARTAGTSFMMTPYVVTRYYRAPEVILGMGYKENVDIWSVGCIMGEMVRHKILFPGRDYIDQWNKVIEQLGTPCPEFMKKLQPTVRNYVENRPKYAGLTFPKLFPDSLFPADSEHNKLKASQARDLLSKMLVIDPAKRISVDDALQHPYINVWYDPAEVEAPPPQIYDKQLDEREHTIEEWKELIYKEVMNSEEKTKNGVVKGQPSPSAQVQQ

[9] = target: CYP2C9 (Homo sapiens, UniProt P11712); test: P450 inhibition, tolbutamide hydroxylation; format: in vitro ADME; conditions: probe tolbutamide
Chain of CYP2C9 (P11712 whole entry): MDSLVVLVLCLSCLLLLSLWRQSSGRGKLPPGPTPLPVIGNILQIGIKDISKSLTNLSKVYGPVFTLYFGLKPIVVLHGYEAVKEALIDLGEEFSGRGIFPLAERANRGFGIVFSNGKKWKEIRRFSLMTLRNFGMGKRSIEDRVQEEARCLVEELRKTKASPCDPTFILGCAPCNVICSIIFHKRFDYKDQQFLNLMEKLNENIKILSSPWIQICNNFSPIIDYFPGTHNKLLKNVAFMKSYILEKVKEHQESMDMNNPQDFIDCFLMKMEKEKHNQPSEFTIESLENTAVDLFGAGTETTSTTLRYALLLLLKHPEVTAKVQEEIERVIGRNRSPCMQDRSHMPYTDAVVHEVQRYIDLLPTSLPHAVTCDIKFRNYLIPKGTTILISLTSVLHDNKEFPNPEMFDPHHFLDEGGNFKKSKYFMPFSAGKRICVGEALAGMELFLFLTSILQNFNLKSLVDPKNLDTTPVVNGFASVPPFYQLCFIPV

[10] = target: CYP2D6 (Homo sapiens, UniProt P10635); test: P450 inhibition, bufuralol hydroxylation; format: in vitro ADME; conditions: probe bufuralol
Chain of CYP2D6 (P10635 whole entry): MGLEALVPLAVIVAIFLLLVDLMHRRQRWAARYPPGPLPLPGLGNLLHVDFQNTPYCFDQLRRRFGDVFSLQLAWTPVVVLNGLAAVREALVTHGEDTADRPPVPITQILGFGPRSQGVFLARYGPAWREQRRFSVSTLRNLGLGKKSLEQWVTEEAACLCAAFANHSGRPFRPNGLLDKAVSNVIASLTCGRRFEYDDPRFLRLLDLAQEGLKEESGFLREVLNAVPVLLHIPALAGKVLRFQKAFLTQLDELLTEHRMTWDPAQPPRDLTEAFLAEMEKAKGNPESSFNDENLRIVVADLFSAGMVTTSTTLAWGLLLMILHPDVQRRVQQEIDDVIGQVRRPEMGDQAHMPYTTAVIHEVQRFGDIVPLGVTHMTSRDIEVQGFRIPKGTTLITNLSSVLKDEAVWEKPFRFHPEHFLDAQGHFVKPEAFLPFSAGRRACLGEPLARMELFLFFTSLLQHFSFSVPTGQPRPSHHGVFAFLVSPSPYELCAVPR

[11] = target: CYP3A4 (Homo sapiens, UniProt P08684); test: P450 inhibition, midazolam hydroxylation; format: in vitro ADME; conditions: probe midazolam
Chain of CYP3A4 (P08684 whole entry): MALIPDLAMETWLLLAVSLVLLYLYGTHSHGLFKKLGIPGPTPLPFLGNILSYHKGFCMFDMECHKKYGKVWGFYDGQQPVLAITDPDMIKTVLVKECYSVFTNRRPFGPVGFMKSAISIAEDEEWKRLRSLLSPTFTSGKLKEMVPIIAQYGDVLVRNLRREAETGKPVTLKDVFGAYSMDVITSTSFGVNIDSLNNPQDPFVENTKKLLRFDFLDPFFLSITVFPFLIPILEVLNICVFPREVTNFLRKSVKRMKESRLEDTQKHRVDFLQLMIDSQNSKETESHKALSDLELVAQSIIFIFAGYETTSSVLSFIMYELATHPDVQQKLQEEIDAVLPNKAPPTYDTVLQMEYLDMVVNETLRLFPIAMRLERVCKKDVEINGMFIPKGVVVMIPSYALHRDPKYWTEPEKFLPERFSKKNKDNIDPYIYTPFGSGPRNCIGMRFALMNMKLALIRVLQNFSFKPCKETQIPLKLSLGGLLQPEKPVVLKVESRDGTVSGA

[12] = target: T2, CYP1A2 (Homo sapiens, UniProt P05177); test: P450 inhibition, phenaceten demethylation; format: in vitro ADME; conditions: probe phenaceten
T2 sequence (P05177 1-516): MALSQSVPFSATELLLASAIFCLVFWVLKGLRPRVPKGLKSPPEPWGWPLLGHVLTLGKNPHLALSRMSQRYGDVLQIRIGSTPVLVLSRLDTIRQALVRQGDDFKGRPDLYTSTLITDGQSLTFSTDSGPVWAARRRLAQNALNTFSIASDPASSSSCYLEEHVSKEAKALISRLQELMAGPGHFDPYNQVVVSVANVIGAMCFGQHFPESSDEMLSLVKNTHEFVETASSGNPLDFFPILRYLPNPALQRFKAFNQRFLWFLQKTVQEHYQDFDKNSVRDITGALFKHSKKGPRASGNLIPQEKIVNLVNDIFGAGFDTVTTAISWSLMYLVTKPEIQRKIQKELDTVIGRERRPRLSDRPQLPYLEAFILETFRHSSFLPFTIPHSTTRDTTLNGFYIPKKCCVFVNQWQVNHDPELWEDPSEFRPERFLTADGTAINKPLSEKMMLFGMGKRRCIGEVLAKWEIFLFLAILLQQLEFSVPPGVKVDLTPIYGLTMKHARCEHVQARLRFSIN

[13] = target: JNK1 (Homo sapiens, UniProt P45983); test: Homogeneous time resolved fluorescence biochemical assay, JNK1
Chain of JNK1 (P45983 whole entry): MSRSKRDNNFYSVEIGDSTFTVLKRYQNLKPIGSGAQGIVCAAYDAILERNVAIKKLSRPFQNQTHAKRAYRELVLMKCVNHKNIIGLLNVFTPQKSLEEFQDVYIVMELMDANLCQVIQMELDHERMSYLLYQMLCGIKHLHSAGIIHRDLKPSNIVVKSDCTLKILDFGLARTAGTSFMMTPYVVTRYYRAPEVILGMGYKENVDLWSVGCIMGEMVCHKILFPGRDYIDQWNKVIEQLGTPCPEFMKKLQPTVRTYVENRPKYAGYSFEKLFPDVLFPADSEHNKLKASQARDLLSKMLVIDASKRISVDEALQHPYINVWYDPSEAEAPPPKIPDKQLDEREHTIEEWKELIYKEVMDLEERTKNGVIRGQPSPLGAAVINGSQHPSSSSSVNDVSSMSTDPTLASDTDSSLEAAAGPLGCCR

[14] = target: T1, p38; conditions: JNK versus p38
[15] = test system: panel of 400 kinases; test: Broad counterscreening against a panel of 400 kinases; format: biochemical; conditions: 3 μM; out of 400 kinases
[16] = target: T3, MKK7 (Homo sapiens, UniProt O14733); test: Kinase counterscreen, MKK7; format: biochemical; conditions: 3 μM
T3 sequence (O14733 1-419): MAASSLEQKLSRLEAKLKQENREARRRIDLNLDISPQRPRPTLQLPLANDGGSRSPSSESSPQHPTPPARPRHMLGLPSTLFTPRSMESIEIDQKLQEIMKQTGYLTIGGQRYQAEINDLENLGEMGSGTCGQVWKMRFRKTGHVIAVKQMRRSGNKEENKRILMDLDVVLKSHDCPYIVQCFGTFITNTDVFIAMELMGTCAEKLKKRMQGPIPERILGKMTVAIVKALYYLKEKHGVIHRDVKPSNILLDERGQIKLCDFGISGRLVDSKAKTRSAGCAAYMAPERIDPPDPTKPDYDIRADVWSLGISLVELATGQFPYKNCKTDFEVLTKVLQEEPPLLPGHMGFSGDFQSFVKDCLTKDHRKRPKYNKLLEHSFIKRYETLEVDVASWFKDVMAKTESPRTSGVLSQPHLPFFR

[17] = target: T4, MKK4 (Homo sapiens, UniProt P45985); test: Kinase counterscreen, MKK4; format: biochemical; conditions: 3 μM
T4 sequence (P45985 1-399): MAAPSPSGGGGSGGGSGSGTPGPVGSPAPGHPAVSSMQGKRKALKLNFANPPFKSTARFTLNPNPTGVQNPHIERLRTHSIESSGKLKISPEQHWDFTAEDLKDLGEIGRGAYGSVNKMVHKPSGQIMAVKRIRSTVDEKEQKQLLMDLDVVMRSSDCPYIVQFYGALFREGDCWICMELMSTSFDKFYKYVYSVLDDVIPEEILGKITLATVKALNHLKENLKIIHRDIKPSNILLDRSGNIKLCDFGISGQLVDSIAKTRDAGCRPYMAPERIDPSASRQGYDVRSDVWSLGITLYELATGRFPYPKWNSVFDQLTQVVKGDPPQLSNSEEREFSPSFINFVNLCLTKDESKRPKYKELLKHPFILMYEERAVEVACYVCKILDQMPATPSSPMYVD

[18] = test system: MLK1-3; test: Kinase counterscreen, MLK1-3; format: biochemical; conditions: 3 μM
[19] = test system: MAPK3K1-4; test: Kinase counterscreen, MAPK3K1-4; format: biochemical; conditions: 3 μM
[20] = target: T5, ASK-1 (Homo sapiens, UniProt Q99683); test: Kinase counterscreen, ASK-1; format: biochemical; conditions: 3 μM
T5 sequence (Q99683 1-1374): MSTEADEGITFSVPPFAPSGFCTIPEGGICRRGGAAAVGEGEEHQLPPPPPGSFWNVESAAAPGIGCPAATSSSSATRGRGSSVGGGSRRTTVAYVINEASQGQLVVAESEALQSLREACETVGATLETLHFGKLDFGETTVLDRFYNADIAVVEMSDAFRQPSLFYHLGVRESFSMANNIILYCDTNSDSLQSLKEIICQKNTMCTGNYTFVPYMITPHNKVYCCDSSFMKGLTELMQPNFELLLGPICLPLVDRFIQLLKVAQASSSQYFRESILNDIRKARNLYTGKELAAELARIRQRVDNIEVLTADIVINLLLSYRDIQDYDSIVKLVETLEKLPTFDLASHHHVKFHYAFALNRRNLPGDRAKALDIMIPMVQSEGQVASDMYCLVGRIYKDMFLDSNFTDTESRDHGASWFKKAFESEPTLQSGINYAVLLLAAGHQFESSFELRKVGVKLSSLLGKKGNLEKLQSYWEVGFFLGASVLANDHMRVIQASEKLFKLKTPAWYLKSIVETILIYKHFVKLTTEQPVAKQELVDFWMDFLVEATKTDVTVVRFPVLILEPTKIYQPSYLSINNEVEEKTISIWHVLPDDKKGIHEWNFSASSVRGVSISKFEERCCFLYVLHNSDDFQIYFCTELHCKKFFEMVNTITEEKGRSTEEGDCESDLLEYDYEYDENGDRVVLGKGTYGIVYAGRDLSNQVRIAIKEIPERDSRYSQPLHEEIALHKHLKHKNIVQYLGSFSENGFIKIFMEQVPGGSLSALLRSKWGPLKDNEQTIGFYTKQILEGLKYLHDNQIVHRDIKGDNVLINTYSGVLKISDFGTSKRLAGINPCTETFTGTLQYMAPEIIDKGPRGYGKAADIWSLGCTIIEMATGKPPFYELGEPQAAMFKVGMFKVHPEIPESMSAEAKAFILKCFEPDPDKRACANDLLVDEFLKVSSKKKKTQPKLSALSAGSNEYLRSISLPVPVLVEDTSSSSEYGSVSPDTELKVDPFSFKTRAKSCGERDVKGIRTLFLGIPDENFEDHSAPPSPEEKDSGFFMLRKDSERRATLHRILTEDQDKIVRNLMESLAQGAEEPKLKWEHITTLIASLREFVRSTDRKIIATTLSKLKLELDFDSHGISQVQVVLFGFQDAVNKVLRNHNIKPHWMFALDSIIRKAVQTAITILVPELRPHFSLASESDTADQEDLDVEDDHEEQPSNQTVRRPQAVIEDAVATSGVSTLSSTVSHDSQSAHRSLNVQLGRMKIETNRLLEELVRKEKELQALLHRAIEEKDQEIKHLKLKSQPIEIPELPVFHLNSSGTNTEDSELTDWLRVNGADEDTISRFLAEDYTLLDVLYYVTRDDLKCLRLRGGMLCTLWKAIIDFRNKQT

T1 sequence (Q16539 whole entry): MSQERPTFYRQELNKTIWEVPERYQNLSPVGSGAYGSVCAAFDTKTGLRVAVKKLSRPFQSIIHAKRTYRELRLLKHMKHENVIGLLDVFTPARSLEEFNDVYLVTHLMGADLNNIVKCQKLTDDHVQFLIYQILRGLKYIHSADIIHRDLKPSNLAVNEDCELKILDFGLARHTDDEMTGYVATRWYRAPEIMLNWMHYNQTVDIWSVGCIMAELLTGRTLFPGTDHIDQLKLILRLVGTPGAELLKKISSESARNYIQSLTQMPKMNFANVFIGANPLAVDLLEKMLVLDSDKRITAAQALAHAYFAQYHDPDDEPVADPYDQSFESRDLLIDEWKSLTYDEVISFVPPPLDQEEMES

1,3-benzothiazol-2-yl (2-[[2-(3-pyridinyl) ethyl] amino]-4 pyrimidinyl) acetonitrile [AS601245]
inhibition of IL-2 release in Jurkat cells [1]: 90% | efficacy in transient global ischemia models [2]: efficacious

NC(=O)c1ccc(Nc2nccc(-c3ccccc3)n2)cc1 [Compound 9a]
IC50 [3]: > 20 µM

c1cc(-c2ccnc(Nc3ccc(-n4ccnn4)cc3)n2)cc(N2CCOCC2)c1 [Compound 9c]
IC50 [3]: > 20 µM

CS(=O)(=O)Nc1ccc(-c2ccnc(Nc3ccc(S(N)(=O)=O)cc3)n2)cc1 [Compound 9d]
IC50 [3]: > 20 µM

CS(=O)(=O)Nc1ccc(-c2ccnc(Nc3ccc(-n4ccnn4)cc3)n2)cc1 [Compound 9e]
decrease in potency (shift) for c-jun phosphorylation cell-based assay compared to JNK1 biochemical IC50 [4]: 13 fold | Microsomal Stability (half life), mouse [5]: poor microsomal stability | Microsomal Stability (half life), rat [6]: poor microsomal stability | Microsomal Stability (half life), human [7]: poor microsomal stability | fold more potent versus JNK3 than compound 9c ([8]; compared to 9c): 91 fold | IC50 [3]: > 20 µM

Cc1ncn(-c2ccc(Nc3nccc(-c4cccc(N5CCOCC5)c4)n3)cc2)n1 [Compound 9f]
inhibition at 15 min, 10 µM [9]: < 50% | inhibition at 15 min, 10 µM [10]: < 50% | inhibition at 15 min, 10 µM [11]: < 50% | inhibition at 15 min, 10 µM [12]: < 50% | IC50 [3]: > 20 µM

Cc1ncn(-c2ccc(Nc3nccc(-c4cc(C#N)cc(N5CCOCC5)c4)n3)cc2)n1 [Compound 9g]
increase in potency for JNK1 inhibition compared to 9f ([13]; compared to 9f): approximately 5 fold | decrease in potency (shift) for c-jun phosphorylation cell-based assay compared to JNK1 biochemical IC50 [4]: essentially equipotent | increase in potency for JNK3 inhibition compared to 9f ([8]; compared to 9f): approximately 5 fold | selectivity over p38 [14]: greater than 135 fold | IC50 [3]: > 20 µM

Cn1nnc(-c2ccc(Nc3nccc(-c4cc(C#N)cc(N5CCOCC5)c4)n3)cc2)n1 [Compound 9h, 3-(2-(4-(2-methyl-2H-tetrazol-5-yl)phenylamino)pyrimidin-4-yl)-5-morpholinobenzonitrile]
difference in IC50 for JNK1 compared to 9g ([13]; compared to 9g): less than 2 fold | difference in IC50 for c-jun phosphorylation compared to 9g ([4]; compared to 9g): less than 2 fold | inhibition at 15 min, 10 µM [9]: ≤ 15% | inhibition at 15 min, 10 µM [10]: ≤ 15% | inhibition at 15 min, 10 µM [11]: ≤ 15% | inhibition at 15 min, 10 µM [12]: ≤ 15% | IC50 [3]: > 20 µM

c1cncc(-c2ncn(-c3ccc(Nc4nccc(-c5cccc(N6CCOCC6)c5)n4)cc3)n2)c1 [Compound 9i, 4-(3-Morpholinophenyl)-N-(4-(3-(pyridin-3-yl)-1H-1,2,4-triazol-1-yl)phenyl)pyrimidin-2-amine]
IC50 [3]: > 20 µM

N#Cc1cc(-c2ccnc(Nc3ccc(-n4cnc(-c5ccccn5)n4)cc3)n2)cc(N2CCOCC2)c1 [Compound 9j, 3-Morpholino-5-(2-(4-(3-(pyridin-2-yl)-1H-1,2,4-triazol-1-yl)phenylamino)pyrimidin-4-yl)benzonitrile]
inhibition at 15 min, 10 µM [9]: ≤ 33% | inhibition at 15 min, 10 µM [10]: ≤ 33% | inhibition at 15 min, 10 µM [11]: ≤ 33% | inhibition at 15 min, 10 µM [12]: ≤ 33% | IC50 [3]: > 20 µM

CN1CCN(c2ncn(-c3ccc(Nc4nccc(-c5cc(F)cc(N6CCOCC6)c5)n4)cc3)n2)CC1 [Compound 9k]
decrease in potency (shift) for c-jun phosphorylation cell-based assay compared to JNK1 biochemical IC50 [4]: essentially equipotent | IC50 [3]: > 20 µM

Fc1cc(-c2cc[nH]/c(=N/c3ccc(-n4cnc(N5CCOCC5)n4)cc3)n2)cc(N2CCOCC2)c1 [Compound 9l]
IC50 ([4]; read-out: cell-based IC50, inhibition of c-jun phosphorylation): ~0.05 µM | inhibition at 15 min, 10 µM [9]: 70 to 90% | inhibition at 15 min, 10 µM [11]: 70 to 90% | inhibition at 15 min, 10 µM [12]: 70 to 90% | number of kinases showing > 25% inhibition [15]: 28 | number of kinases showing greater than 70% biochemical inhibition [15]: eleven | inhibition of MKK7 [16]: no inhibition | inhibition of MKK4 [17]: no inhibition | inhibition of MLK1-3 [18]: no inhibition | inhibition of MAPK3K1-4 [19]: no inhibition | inhibition of ASK-1 [20]: no inhibition | IC50 [3]: > 20 µM
